The experiment in a line: Inhibited co-autoxidation of egg phosphatidylcholine liposomes and STY-BODIPY (radical-trapping antioxidant activity). On the procedure:
Inhibitors were then added (5 μl aliquots) at desired concentrations to the appropriate wells followed by vigorous mixing. […] Experiments were performed in triplicate using HPLC grade solvents and kinetic data is given as an average of three independent measurements. […]

“2,2,7,8-pentamethyl-6-chromanol [PMC, reference compound]” showed a ΔSTY-BODIPY (time 53820 s) of -0.366 µM, a ΔSTY-BODIPY (time 53880 s) of -0.3653 µM, a ΔSTY-BODIPY (time 53940 s) of -0.3652 µM and a ΔSTY-BODIPY (time 54000 s) of -0.3628 µM.

The values above are taken from PMC8292346, “Dysfunction of the key ferroptosis-surveilling systems hypersensitizes mice to tubular necrosis during acute kidney injury” (Nature Communications, 2021).
